Assay results from patent publication EP0197829A1, “5H-pyrido[3',4':4,5]pyrrolo[3,2-c]pyridine derivatives, process for their preparation and their antitunour activity” (SANOFI, priority 1985, dated 1986).
Read-outs that look alike come from different tables or passages of the source.

Key:
leucémie P 388 = format: in vivo, souris hybrides CDF1; details: for Survivants: at day J 40
Source text: (§1) L'activité antitumorale a été testée in vivo sur différentes tumeurs selon le protocole général suivant : Toutes les souris mâles ou femelles sont inoculées par voie intrapéritonéale au jour Jo avec une quantité déterminée de cellules tumorales viables, variable selon la tumeur.
(§2) Elles sont ensuite réparties en différents lots. Chaque lot correspondant aux animaux traités par le produit à tester à une dose déterminée est composé de lO souris. Dans ce cas, le produit à tester est dissous dans l'eau distillée et il est administré, pendant n jours (J1-Jn) variables selon le protocole choisi, par voie intrapéritonéale à raison de 0,1 ml par lO g de poids des souris traitées, les doses du produit administré étant précisées dans les tableaux ci-dessous.
(§3) Le lot "Contrôle négatif", correspondant aux animaux qui ne sont pas traités par un produit, comprend 2 √N animaux, N étant égal au nombre total de souris traitées par un produit.
(§4) Enfin, tous lés essais sont conduits parallèlement à l'étude d'un lot appelé "Contrôle positif" de 10 animaux qui est traité par une molécule active, variable selon le protocole choisi, dans les mêmes conditions que les lots traités par le produit à tester, afin de valider l'essai.
(§5) L'activité antitumorale est évaluée en considérant l'augmentation du temps de survie des animaux traités par rapport à celui des animaux du lot "Contrôle négatif" selon la formule : • Jour médian de survie des animaux traités à une T/C = dose donnée de produit x 100 • Jour médian de survie des animaux "Contrôle négatif"
(§6) Un composé est considéré comme étant actif lorsque la valeur du rapport T/C est égale ou supérieure à 125 % selon le protocole retenu. Il est toxique lorsque cette valeur est égale ou inférieure à 85 %. Le produit est également considéré comme toxique lorsque la variation pondérale, exprimée en grammes et calculée par la formule : Poids moyen du lot mesuré au jour 5 - poids moyen du même lot au jour 1, est égale ou inférieure à -4g . a) Test de la leucémie P 388 (GERAN et al., Cancer Chemother, 1972, 2, 07-57).
Les essais sont effectués avec des souris hybrides CDF1 inoculées par voie intrapéritonéale avec […] leucémiques de la lignée P 388. Le composé à tester est administré pendant 5 jours (Jl-J5). Le contrôle positif du test est le 5-fluorouracile qui est administré dans les mêmes conditions.
[…] Un composé est considéré comme étant actif lorsque le rapport T/C est supérieur à 127 %.

leucémie L 1210 = assay: L 1210 leukemia test in vivo; design: species or system souris hybrides CDF1; details: for Survivants: at day J 60
Source text: as §1, §2, §3, §4, §5, §6
b) Test de la leucémie L 1210 (GERAN et al., Cancer Chemother, 1972, 2, 07-57).
Les essais sont effectués avec des souris hybrides CDF1 inoculées avec 10^5 cellules leucémiques de la lignée L 1210. Le composé à tester est administré pendant 5 jours (J1-J5). Le contrôle positif du test est le 5-fluorouracile administré dans les mêmes conditions. Le nombre d'animaux survivants est évalué au jour J 60. Un composé est considéré comme étant actif lorsque le rapport T/C est supérieur ou égal à 125 %.

réticulosarcome M5-M5076 = assay: M5-M5076 reticulosarcoma test in vivo; design: species or system souris hybrides BDF1; details: for Survivants: at day J 75
Source text: as §1, §2, §3, §4, §5, §6
d) Test du réticulosarcome M5-M5076.
Les essais sont effectués avec des souris hybrides BDF1 inoculées avec 10^6 cellules de la lignée M5-M5076. Le composé à tester est administré 5 fois successivement de façon séquentielle (Jl, 5, 9, 13, 17). Le contrôle positif du test est le cyclophosphamide administré dans les mêmes conditions. Le nombre d'animaux survivants est évalué au jour J 75. Un composé est considéré comme actif lorsque le rapport T/C est supérieur ou égal à 125 %.

[1] = 100 mg/kg i.p. J1, 5, 9, 13, 17
[2] = 150 mg/kg i.p. J1, 5, 9, 13, 17

In the case of `Cc1cnc(NCCCN(C)C)c2c1[nH]c1ccncc12` [Dérivé N° 3, [(diméthylamino-3 propyl-1)amino]-1 méthyl-4 5-H pyrido[3',4':4,5]pyrrolo[3,2-c]pyridine], the “Jour médian de survie” value (leucémie P 388; 5 mg/kg i.p. J1-J5) was 16,25, the T/C % (leucémie P 388; 5 mg/kg i.p. J1-J5) was 147% and the Survivants (leucémie P 388; 5 mg/kg i.p. J1-J5) was 0. The “Jour médian de survie” value (leucémie P 388; 10 mg/kg i.p. J1-J5) was 17,75, the T/C % (leucémie P 388; 10 mg/kg i.p. J1-J5) was 161% and the Survivants (leucémie P 388; 10 mg/kg i.p. J1-J5) was 0. For the same compound, the “Jour médian de survie” value (leucémie P 388; 20 mg/kg i.p. J1-J5) was 20,0, the T/C % (leucémie P 388; 20 mg/kg i.p. J1-J5) was 181% and the Survivants (leucémie P 388; 20 mg/kg i.p. J1-J5) was 0. The “Jour médian de survie” value (leucémie P 388; 40 mg/kg i.p. J1-J5) was 19,3, the T/C % (leucémie P 388; 40 mg/kg i.p. J1-J5) was 175% and the Survivants (leucémie P 388; 40 mg/kg i.p. J1-J5) was 1. The “Jour médian de survie” value (leucémie P 388; 80 mg/kg i.p. J1-J5) was 7,3, the T/C % (leucémie P 388; 80 mg/kg i.p. J1-J5) was 66% and the Survivants (leucémie P 388; 80 mg/kg i.p. J1-J5) was 0. The “Jour médian de survie” value (leucémie P 388; 0,625 mg/kg i.p. J1-J5) was 13,1, the T/C % (leucémie P 388; 0,625 mg/kg i.p. J1-J5) was 119% and the Survivants (leucémie P 388; 0,625 mg/kg i.p. J1-J5) was 0. The “Jour médian de survie” value (leucémie P 388; 1,25 mg/kg i.p. J1-J5) was 14,1, the T/C % (leucémie P 388; 1,25 mg/kg i.p. J1-J5) was 128% and the Survivants (leucémie P 388; 1,25 mg/kg i.p. J1-J5) was 0. The “Jour médian de survie” value (leucémie P 388; 2,5 mg/kg i.p. J1-J5) was 15,0, the T/C % (leucémie P 388; 2,5 mg/kg i.p. J1-J5) was 136% and the Survivants (leucémie P 388; 2,5 mg/kg i.p. J1-J5) was 0. The “Jour médian de survie” value (leucémie L 1210; 5 mg/kg i.p. J1-J5) was 14,0, the T/C % (leucémie L 1210; 5 mg/kg i.p. J1-J5) was 152% and the Survivants (leucémie L 1210; 5 mg/kg i.p. J1-J5) was 0. The “Jour médian de survie” value (leucémie L 1210; 10 mg/kg i.p. J1-J5) was 16,25, the T/C % (leucémie L 1210; 10 mg/kg i.p. J1-J5) was 177% and the Survivants (leucémie L 1210; 10 mg/kg i.p. J1-J5) was 0. The “Jour médian de survie” value (leucémie L 1210; 20 mg/kg i.p. J1-J5) was 15,6, the T/C % (leucémie L 1210; 20 mg/kg i.p. J1-J5) was 170% and the Survivants (leucémie L 1210; 20 mg/kg i.p. J1-J5) was 0. For the same compound, the “Jour médian de survie” value (leucémie L 1210; 40 mg/kg i.p. J1-J5) was 9,25, the T/C % (leucémie L 1210; 40 mg/kg i.p. J1-J5) was 100% and the Survivants (leucémie L 1210; 40 mg/kg i.p. J1-J5) was 0. The “Jour médian de survie” value (leucémie L 1210; 50 mg/kg i.p. J1-J5) was 8,2, the T/C % (leucémie L 1210; 50 mg/kg i.p. J1-J5) was 89% and the Survivants (leucémie L 1210; 50 mg/kg i.p. J1-J5) was 0. For the same compound, the “Jour médian de survie” value (leucémie L 1210; 1,25 mg/kg i.p. J1-J5) was 11,75, the T/C % (leucémie L 1210; 1,25 mg/kg i.p. J1-J5) was 128% and the Survivants (leucémie L 1210; 1,25 mg/kg i.p. J1-J5) was 0. For the same compound, the “Jour médian de survie” value (leucémie L 1210; 2,5 mg/kg i.p. J1-J5) was 12,90, the T/C % (leucémie L 1210; 2,5 mg/kg i.p. J1-J5) was 140% and the Survivants (leucémie L 1210; 2,5 mg/kg i.p. J1-J5) was 0. For the same compound, the “Jour médian de survie” value (réticulosarcome M5-M5076; 25 mg/kg i.p. J1, 5, 9, 13, 17) was 51,0, the T/C % (réticulosarcome M5-M5076; 25 mg/kg i.p. J1, 5, 9, 13, 17) was 195% and the Survivants (réticulosarcome M5-M5076; 25 mg/kg i.p. J1, 5, 9, 13, 17) was 1. The “Jour médian de survie” value (réticulosarcome M5-M5076; 50 mg/kg i.p. J1, 5, 9, 13, 17) was 45,0, the T/C % (réticulosarcome M5-M5076; 50 mg/kg i.p. J1, 5, 9, 13, 17) was 172% and the Survivants (réticulosarcome M5-M5076; 50 mg/kg i.p. J1, 5, 9, 13, 17) was 0. The “Jour médian de survie” value (réticulosarcome M5-M5076; 75 mg/kg i.p. J1, 5, 9, 13, 17) was 41,7, the T/C % (réticulosarcome M5-M5076; 75 mg/kg i.p. J1, 5, 9, 13, 17) was 159% and the Survivants (réticulosarcome M5-M5076; 75 mg/kg i.p. J1, 5, 9, 13, 17) was 0. The “Jour médian de survie” value (réticulosarcome M5-M5076; [1]) was 44,7, the T/C % (réticulosarcome M5-M5076; [1]) was 171% and the Survivants (réticulosarcome M5-M5076; [1]) was 0. For the same compound, the “Jour médian de survie” value (réticulosarcome M5-M5076; [2]) was 10,0, the T/C % (réticulosarcome M5-M5076; [2]) was 38% and the Survivants (réticulosarcome M5-M5076; [2]) was 0.
